{"source": "patent US4996237A", "about": "“Combretastatin A-4” (Arizona Board of Regents, priority 1988, dated 1991)", "key": {"[1]": {"tested_on": "tubulin", "test": "inhibition of microtubule assembly / tubulin polymerization", "assay_type": "biochemical"}, "[2]": {"tested_on": "tubulin", "test": "inhibition of colchicine binding to tubulin", "conditions": "competes with combretastatin A-1"}, "[3]": {"tested_on": "P388 lymphocytic leukemia cell line", "test": "growth inhibition of murine P388 lymphocytic leukemia cell line (PS system)", "assay_type": "cell-based"}, "[4]": {"tested_on": "L1210 lymphocytic leukemia cell line", "test": "growth inhibition of murine L1210 lymphocytic leukemia cell line", "assay_type": "cell-based"}, "[5]": {"tested_on": "VoLo human colon cancer cell line", "test": "growth inhibition of human colon cancer cell line VoLo", "assay_type": "cell-based", "conditions": "read-out: ED50, VoLo"}, "[6]": {"tested_on": "DLD-1 human colon cancer cell line", "test": "growth inhibition of human colon cancer cell line DLD-1", "assay_type": "cell-based", "conditions": "read-out: ED50, DLD-1"}, "[7]": {"tested_on": "HCT-15 human colon cancer cell line", "test": "growth inhibition of human colon cancer cell line HCT-15", "assay_type": "cell-based", "conditions": "read-out: ED50, HCT-15"}, "[8]": {"test": "antimitotic activity", "conditions": "among the Combretum caffrum constituents"}, "[9]": {"tested_on": "tubulin", "conditions": "previously isolated from Combretum caffrum; cited from earlier work"}}, "note": "pIC50: −log10 of the molar value. “Also recorded” adds a separate entry of the source.", "data": [{"smiles": "COc1ccc(/C=C\\c2cc(OC)c(OC)c(OC)c2)cc1O", "note": "[Combretastatin A-4]", "values": [{"measurement": "pIC50", "setting": "[1]", "result": "[…]"}, {"measurement": "inhibition of tubulin polymerization (in words)", "setting": "[1]", "result": "[…]"}, {"measurement": "inhibition of microtubule assembly, comparison with reference agents (in words)", "setting": "[1]; compared with podophyllotoxin, combretastatin A-1, colchicine, steganacin", "result": "[…]"}, {"measurement": "inhibition of colchicine binding to tubulin (in words)", "setting": "[2]", "result": "[…]"}, {"measurement": "activity against P388 cell line (in words)", "setting": "[3]", "result": "significantly active"}, {"measurement": "IC50", "setting": "[3]; Mus musculus, P388, read-out: ED50, growth of P388 cell line", "result": "[…]"}, {"measurement": "activity against L1210 cell line (in words)", "setting": "[4]", "result": "significantly active"}, {"measurement": "IC50", "setting": "[4]; Mus musculus, L1210, read-out: ED50, growth of L1210 cell line", "result": "[…]"}, {"measurement": "IC50", "setting": "[5]", "result": "[…]"}, {"measurement": "IC50", "setting": "[6]", "result": "[…]"}, {"measurement": "IC50", "setting": "[7]", "result": "[…]"}, {"measurement": "antimitotic activity (in words)", "setting": "[8]", "result": "strongest antimitotic agent"}]}, {"smiles": "COc1ccc(/C=C\\c2cc(OC)c(OC)c(OC)c2)c(O)c1O", "note": "[combretastatin A-1]", "values": [{"measurement": "inhibition of microtubule assembly (in words), earlier isolated substances", "setting": "[9]", "result": "potent inhibitors of microtubule assembly"}]}, {"smiles": "COc1ccc(/C=C\\c2cc(OC)c3c(c2)OCO3)cc1O", "note": "[combretastatin A-2]", "values": [{"measurement": "inhibition of microtubule assembly (in words), earlier isolated substances", "setting": "[9]", "result": "potent inhibitors of microtubule assembly"}]}, {"smiles": "COc1ccc(/C=C/c2cc(OC)c(OC)c(OC)c2)cc1O", "note": "[trans-isomer]", "values": [{"measurement": "activity against P388 cell line (in words)", "setting": "[3]", "result": "significantly active"}, {"measurement": "activity against L1210 cell line (in words)", "setting": "[4]", "result": "significantly active"}]}]}
